{"source": "patent US20250009695A1", "about": "“COMPOSITIONS AND METHODS FOR PROMOTING GLYCOGEN SYNTHASE ACTIVITY AND AUGMENTING GLYCOGEN STORAGE CAPABILITY” (NANJING NUTRABUILDING BIO-TECH CO., LTD., priority 2021, published 2025)", "key": {"[1]": {"assay": "Effect of BAIBA on liver and skeletal muscle glycogen content in normal mice (ELISA kits)", "assay_type": "in vivo, C57 mice", "conditions": "oral gavage 2 weeks, compared to Exercise group; for glycogen levels in liver tissue (change, in words): FIG. 1; for glycogen levels in muscle tissue (change, in words): FIG. 3", "protocol": "(§1) SPF-grade male C57 mice (8 weeks old) were purchased from Nanjing Qinglongshan Laboratory Animal Breeding Center. Mice were housed individually in a steel cage in a room at 24° C. with a 12:12 h (Light:Dark) photoperiod and standard diet. Food and water were provided ad libitum. Forty mice were randomly divided into five groups. Control Group: Receiving neither exercise nor L-BAIBA treatment. Exercise Group: Receiving only exercise and no L-BAIBA treatment. BAIBA Group: Receiving only L-BAIBA treatment and no exercise. Pre-workout Group: Receiving L-BAIBA treatment before exercise. Post-workout Group: Receiving L-BAIBA treatment after exercise. Samples were administered orally (gavage volume was 0.1 mL/10 g per mouse) via a gavage tube for 2 weeks.\n(§2) The exercise consisted of treadmill running at a speed of 3.0 m/min with no inclination of the treadmill. Mice were allowed to freely explore the treadmill until each mouse had explored its lane and the treadmill was turned on with a slow increase in the speed until animals begin running at set speed. During the first week of the treatment period, as an introduction the mice were forced to running exercise for 8 minutes. Subsequently, the exercise duration was increased to 9 minutes during the following week. The exercise duration was finally set to 10 minutes daily for the rest of weeks.\nAfter 30 minutes of exercise on day 14th, mice were injected with 0.1 to 0.3 ml 1% thiopental sodium intraperitoneally in order to general anesthesia. The soleus of the hind limbs of mice and liver were taken to detect the content of glycogen contents and glycogen synthetase with ELISA Kits."}, "glycogen synthetase": {"system": "glycogen synthetase", "assay": "Effect of BAIBA on muscle glycogen synthetase content in normal mice (ELISA kits)", "assay_type": "in vivo, C57 mice", "conditions": "L-BAIBA administration, oral gavage 2 weeks, soleus, FIG. 4", "protocol": "as §1\nas §2, with “weeks. […]” for “weeks.”"}, "[2]": {"assay": "Effect of oral BAIBA administration on liver and skeletal muscle glycogen levels in obese (HFD) mice", "assay_type": "in vivo", "conditions": "for hepatic glycogen levels (change, in words) / muscle glycogen levels (change, in words): HFD mice, better than exercise alone; for Liver glycogen / Muscle glycogen: obese mice on HFD, oral, week 9-16, P < 0.05 vs Model; for Liver glycogen: main lobe of liver; for Muscle glycogen: soleus muscle", "from_the_text": "Post quarantine, animals were acclimatized for one week and subsequently the animals were randomized based on body weight stratification. Initially, mice were allocated broadly into two groups with one group receiving the Normal Diet (ND) representing normal subjects and the other receiving a defined High Fat Diet (HFD) representing obese subjects. The HFD was a defined lard-based diet procured from Research Diets, New Jersey, USA (Product No.—D12492, with 60 Kcal % from fat, 20 Kcal % from proteins, and 20 Kcal % from carbohydrates; Lot no. 20050105 and expiry date 30 Nov. 2020). The ND was a defined control diet procured from Hylasco Biotechnology Pvt. Ltd, manufactured by PMI Nutrition International (Batch no. MAY06202 and expiry date February 2021) containing similar nutrients as HFD but with 13 Kcal % from fat, 17 Kcal % from proteins, and […].\nThe mice in the respective groups were put on ND and HFD for 8 weeks starting at age of ˜8 weeks. Food was offered twice a week by replacing the left-over feed with fresh feed and total weekly feed consumption was calculated and expressed as g feed/day/animal. Bodyweight was recorded once a week. At the end of 8 weeks (Day 57), mean body weight was measured, and animals were randomized based on body weight stratification and grouped separately into respective ND and HFD groups shown in the following experimental design. After the feeding/induction period (Week 1 to 8), the treatment period was from Week 9 to Week 16. A total of 36 mice were randomly grouped into six groups with n=6 in each group. Control Group: Normal mice, maintained on normal diet for 8 weeks, receiving neither exercise nor L-BAIBA treatment. Model Group: Obese mice, maintained on HFD for 8 weeks, receiving neither exercise nor L-BAIBA treatment. Exercise Group: Obese mice, maintained on HFD for 8 weeks, receiving only exercise and no L-BAIBA treatment. BAIBA Group: Obese mice, maintained on HFD for 8 weeks, receiving only LBAIBA treatment and no exercise. Exercise+BAIBA Group: Obese mice, maintained on HFD for 8 weeks, receiving L-BAIBA treatment and exercise.\nA regular treadmill (PowerMax) used by humans was availed for subjecting mice to daily exercise. A special lane box made of Perspex was used to fabricate the treadmill's running platform, forming a modified 6-lane rodent treadmill allowing 6 animals to run simultaneously. The mice in the specified groups were exercised daily throughout the treatment period (week 9-16). Exercise consisted of treadmill running at a speed 3.0 m/min with no inclination of the treadmill. Mice were allowed to freely explore the treadmill until each mouse had explored its lane and the treadmill was turned on with a slow increase in the speed until animals begin running at set speed. During the first week of the treatment period, as an introduction the mice were forced to running exercise for 8 minutes. Subsequently, the exercise duration was increased to 9 minutes during the following week. The exercise duration was finally set to 10 minutes daily for the rest of weeks. Exercise took place in a room separated from the actual housing room to which all mice were transferred and kept during the exercise procedures in order to minimize environmental confounders among the mice not subjected to the exercise protocol. […] Entire procedure was supervised by study personnel and no abnormal behavior of animals was observed. Forced treadmill exercise was carried out at preferred lux and noise free conditions.\nAfter completion of 8 weeks of experimentation (at the end of treatment on the day 114), animals were euthanized using an overdose of isoflurane (20% v/v in propylene glycol in a glass vacuum desiccator). The whole soleus muscle tissues and a sample of the main lobe of the liver were used to measure glycogen content using a modified protocol described in Methods in Enzymology Vol. III (Colowick and Kaplan, 1957)."}, "[3]": {"conditions": "Post-workout Group (L-BAIBA after exercise)"}, "[4]": {"conditions": "Pre-workout Group (L-BAIBA before exercise)"}, "[5]": {"conditions": "combination of L-BAIBA and exercise"}, "[6]": {"conditions": "L-BAIBA treatment and daily treadmill exercise"}, "[7]": {"conditions": "L-BAIBA treatment only, no exercise"}}}
{"smiles": "CC(CN)C(=O)O", "note": "(stereo not drawn) [BAIBA, β-aminoisobutyric acid]", "values": [{"measurement": "glycogen levels in liver tissue (change, in words)", "setting": "[1]; [3]", "result": "increase"}, {"measurement": "glycogen levels in muscle tissue (change, in words)", "setting": "[1]; [3]", "result": "increase"}, {"measurement": "glycogen levels in liver tissue (change, in words)", "setting": "[1]; [4]", "result": "increase"}, {"measurement": "glycogen levels in muscle tissue (change, in words)", "setting": "[1]; [4]", "result": "increase"}, {"measurement": "muscle glycogen synthetase content (change, in words)", "setting": "glycogen synthetase", "result": "significant increase"}, {"measurement": "hepatic glycogen levels (change, in words)", "setting": "[2]; L-BAIBA administration alone", "result": "significant increase"}, {"measurement": "muscle glycogen levels (change, in words)", "setting": "[2]; L-BAIBA administration alone", "result": "significant increase"}, {"measurement": "hepatic glycogen levels (change, in words)", "setting": "[2]; [5]", "result": "significant increase"}, {"measurement": "muscle glycogen levels (change, in words)", "setting": "[2]; [5]", "result": "significant increase"}, {"measurement": "Liver glycogen", "setting": "[2]; [6]", "result": "9.95 ± 0.61", "unit": "mg/g tissue"}, {"measurement": "Muscle glycogen", "setting": "[2]; [6]", "result": "0.29 ± 0.08", "unit": "mg/g tissue"}, {"measurement": "Liver glycogen", "setting": "[2]; [7]", "result": "9.66 ± 1.19", "unit": "mg/g tissue"}, {"measurement": "Muscle glycogen", "setting": "[2]; [7]", "result": "0.31 ± 0.06", "unit": "mg/g tissue"}]}
